Laboratory results from patent publication US20230085307A1, “PYRIDAZINONE COMPOUND AND HERBICIDE” (NISSAN CHEMICAL CORPORATION, priority 2019, published 2023).

Columns and labels:
barnyard grass [1] = assay: Test Example 3: herbicidal effect by foliage application, Wagner pot (Table 18, symbol H); type: in vivo, barnyard grass (Echinochloa crus-galli); details: 320 g/ha
How it was run: (§1)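 Plants were sown in alluvial soil held under 0.1–0.5 cm standing water and grown 14 days in a greenhouse at 25–30 °C. An emulsifiable formulation, water-diluted to the set dose, was then sprayed onto the foliage, and effects were scored three weeks later using previously defined criteria.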

Chinese sprangletop = assay: Test Example 3: herbicidal effect by foliage application, Wagner pot (Table 18, symbol D); type: in vivo, chinese sprangletop (Leptochloa chinensis); details: 320 g/ha
How it was run: as §1

rice flat sedge = assay: Test Example 3: herbicidal effect by foliage application, Wagner pot (Table 18, symbol E); type: in vivo, rice flat sedge (Cyperus iria); details: 320 g/ha
How it was run: as §1

southern crabgrass = assay: Test Example 5: herbicidal effect by foliage application, plastic box (Table 20, symbol F); type: in vivo, southern crabgrass (Digitaria ciliaris); details: foliage application after 14-day growth, evaluated three weeks after application; for herbicidal effect on F: southern crabgrass (evaluation grade 0-5): 320 g/ha
How it was run: (§2)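 Sow seeds spot-wise in sterilized diluvial soil; cover with ~1.5 cm soil. Grow 14 days in greenhouse, 25° C. to 30° C. Spray foliage with emulsion diluted to predetermined amount. Rate effect after 3 weeks.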

green foxtail = assay: Test Example 5: herbicidal effect by foliage application, plastic box (Table 20, symbol G); type: in vivo, green foxtail (Setaria viridis); details: foliage application after 14-day growth, evaluated three weeks after application; for herbicidal effect on G: green foxtail (evaluation grade 0-5): 320 g/ha
How it was run: as §2

barnyard grass [2] = assay: Test Example 5: herbicidal effect by foliage application, plastic box (Table 20, symbol H); type: in vivo, barnyard grass (Echinochloa crus-galli); details: foliage application after 14-day growth, evaluated three weeks after application; for herbicidal effect on H: barnyard grass (evaluation grade 0-5): 320 g/ha
How it was run: as §2

wild oat = assay: Test Example 5: herbicidal effect by foliage application, plastic box (Table 20, symbol I); type: in vivo, wild oat (Avena fatua); details: foliage application after 14-day growth, evaluated three weeks after application; for herbicidal effect on I: wild oat (evaluation grade 0-5): 320 g/ha
How it was run: as §2

blackgrass = assay: Test Example 5: herbicidal effect by foliage application, plastic box (Table 20, symbol J); type: in vivo, blackgrass (Alopecurus myosuroides); details: foliage application after 14-day growth, evaluated three weeks after application; for herbicidal effect on J: blackgrass (evaluation grade 0-5): 320 g/ha
How it was run: as §2

Italian ryegrass = assay: Test Example 5: herbicidal effect by foliage application, plastic box (Table 20, symbol K); type: in vivo, Italian ryegrass (Lolium multiflorum); details: foliage application after 14-day growth, evaluated three weeks after application; for herbicidal effect on K: Italian ryegrass (evaluation grade 0-5): 320 g/ha
How it was run: as §2

windgrass = assay: Test Example 5: herbicidal effect by foliage application, plastic box (Table 20, symbol L); type: in vivo, windgrass (Apera spica-venti); details: foliage application after 14-day growth, evaluated three weeks after application; for herbicidal effect on L: windgrass (evaluation grade 0-5): 320 g/ha
How it was run: as §2

velvetleaf = assay: Test Example 5: herbicidal effect by foliage application, plastic box (Table 20, symbol M); type: in vivo, velvetleaf (Abutilon theophrasti); details: foliage application after 14-day growth, evaluated three weeks after application; for herbicidal effect on M: velvetleaf (evaluation grade 0-5): 320 g/ha
How it was run: as §2

redroot pigweed = assay: Test Example 5: herbicidal effect by foliage application, plastic box (Table 20, symbol N); type: in vivo, redroot pigweed (Amaranthus retroflexus); details: foliage application after 14-day growth, evaluated three weeks after application; for herbicidal effect on N: redroot pigweed (evaluation grade 0-5): 320 g/ha
How it was run: as §2

lambsquarters = assay: Test Example 5: herbicidal effect by foliage application, plastic box (Table 20, symbol O); type: in vivo, lambsquarters (Chenopodium album); details: foliage application after 14-day growth, evaluated three weeks after application; for herbicidal effect on O: lambsquarters (evaluation grade 0-5): 320 g/ha
How it was run: as §2

chickweed = assay: Test Example 5: herbicidal effect by foliage application, plastic box (Table 20, symbol P); type: in vivo, common chickweed (Stellaria media); details: foliage application after 14-day growth, evaluated three weeks after application; for herbicidal effect on P: chickweed (evaluation grade 0-5): 320 g/ha
How it was run: as §2

persian speedwell = assay: Test Example 5: herbicidal effect by foliage application, plastic box (Table 20, symbol R); type: in vivo, Persian speedwell (Veronica persica); details: foliage application after 14-day growth, evaluated three weeks after application; for herbicidal effect on R: persian speedwell (evaluation grade 0-5): 320 g/ha
How it was run: as §2

[3] = amount of applied herbicide 320 g/ha

Row | Compound | herbicidal effect on barnyard grass (H) (barnyard grass [1]) | herbicidal effect on Chinese sprangletop (D) (Chinese sprangletop) | herbicidal effect on rice flat sedge (E) (rice flat sedge) | herbicidal effect on F: southern crabgrass (evaluation grade 0-5) (southern crabgrass) | herbicidal effect on G: green foxtail (evaluation grade 0-5) (green foxtail) | herbicidal effect on H: barnyard grass (evaluation grade 0-5) (barnyard grass [2]) | herbicidal effect on I: wild oat (evaluation grade 0-5) (wild oat) | herbicidal effect on J: blackgrass (evaluation grade 0-5) (blackgrass) | herbicidal effect on K: Italian ryegrass (evaluation grade 0-5) (Italian ryegrass) | herbicidal effect on L: windgrass (evaluation grade 0-5) (windgrass) | herbicidal effect on M: velvetleaf (evaluation grade 0-5) (velvetleaf) | herbicidal effect on N: redroot pigweed (evaluation grade 0-5) (redroot pigweed) | herbicidal effect on O: lambsquarters (evaluation grade 0-5) (lambsquarters) | herbicidal effect on P: chickweed (evaluation grade 0-5) (chickweed) | herbicidal effect on R: persian speedwell (evaluation grade 0-5) (persian speedwell) | other results
1 | Cc1ccccc1-c1sc2c(Cl)cccc2c1-c1c(O)c(C)nn(C)c1=O [4-060] | 3 (Herbicidal rate of 40% or more and less than 70%) | 1 (Herbicidal rate of 5% or more and less than 20%) | 3 (Herbicidal rate of 40% or more and less than 70%) | 0 (Herbicidal rate of 5% or less (almost no effect)) | 0 (Herbicidal rate of 5% or less (almost no effect)) | 0 (Herbicidal rate of 5% or less (almost no effect)) | 0 (Herbicidal rate of 5% or less (almost no effect)) | 0 (Herbicidal rate of 5% or less (almost no effect)) | 0 (Herbicidal rate of 5% or less (almost no effect)) | 4 (Herbicidal rate of 70% or more and less than 90%) | 0 (Herbicidal rate of 5% or less (almost no effect)) | 2 (Herbicidal rate of 20% or more and less than 40%) | 0 (Herbicidal rate of 5% or less (almost no effect)) | 4 (Herbicidal rate of 70% or more and less than 90%) | 0 (Herbicidal rate of 5% or less (almost no effect)) | –
2 | CCCCOc1cccc(-c2sc3c(Cl)cccc3c2-c2c(OC(=O)CCC)c(C)nn(C)c2=O)c1 [4-069] | 4 (Herbicidal rate of 70% or more and less than 90%) | 3 (Herbicidal rate of 40% or more and less than 70%) | 3 (Herbicidal rate of 40% or more and less than 70%) | 0 (Herbicidal rate of 5% or less (almost no effect)) | 0 (Herbicidal rate of 5% or less (almost no effect)) | 0 (Herbicidal rate of 5% or less (almost no effect)) | 0 (Herbicidal rate of 5% or less (almost no effect)) | 0 (Herbicidal rate of 5% or less (almost no effect)) | 0 (Herbicidal rate of 5% or less (almost no effect)) | 0 (Herbicidal rate of 5% or less (almost no effect)) | 0 (Herbicidal rate of 5% or less (almost no effect)) | 0 (Herbicidal rate of 5% or less (almost no effect)) | 0 (Herbicidal rate of 5% or less (almost no effect)) | 4 (Herbicidal rate of 70% or more and less than 90%) | 4 (Herbicidal rate of 70% or more and less than 90%) | –
3 | CCCC(=O)Oc1c(C)nn(C)c(=O)c1-c1c(-c2ccccc2OCc2ccccc2)sc2c(Cl)cccc12 [4-085] | 2 (Herbicidal rate of 20% or more and less than 40%) | 0 (Herbicidal rate of 5% or less (almost no effect)) | 2 (Herbicidal rate of 20% or more and less than 40%) | – | – | – | – | – | – | – | – | – | – | – | – | Herbicidal effect by foliage application, F: southern crabgrass (southern crabgrass; [3]): 0 (Herbicidal rate of 5% or less (almost no effect)); Herbicidal effect by foliage application, G: green foxtail (green foxtail; [3]): 0 (Herbicidal rate of 5% or less (almost no effect)); Herbicidal effect by foliage application, H: barnyard grass (barnyard grass [2]; [3]): 3 (Herbicidal rate of 40% or more and less than 70%); Herbicidal effect by foliage application, I: wild oat (wild oat; [3]): 0 (Herbicidal rate of 5% or less (almost no effect)); Herbicidal effect by foliage application, J: blackgrass (blackgrass; [3]): 0 (Herbicidal rate of 5% or less (almost no effect)); Herbicidal effect by foliage application, K: Italian ryegrass (Italian ryegrass; [3]): 0 (Herbicidal rate of 5% or less (almost no effect)); Herbicidal effect by foliage application, L: windgrass (windgrass; [3]): 0 (Herbicidal rate of 5% or less (almost no effect)); Herbicidal effect by foliage application, M: velvetleaf (velvetleaf; [3]): 0 (Herbicidal rate of 5% or less (almost no effect)); Herbicidal effect by foliage application, N: redroot pigweed (redroot pigweed; [3]): 0 (Herbicidal rate of 5% or less (almost no effect)); Herbicidal effect by foliage application, O: lambsquarters (lambsquarters; [3]): 0 (Herbicidal rate of 5% or less (almost no effect)); Herbicidal effect by foliage application, P: chickweed (chickweed; [3]): 4 (Herbicidal rate of 70% or more and less than 90%); Herbicidal effect by foliage application, R: persian speedwell (persian speedwell; [3]): 2 (Herbicidal rate of 20% or more and less than 40%)
